Measured values taken from US12497428B2, “Galactoside inhibitor of galectins” (GALECTO BIOTECH AB, priority 2018, dated 2025).
Converted amounts (≈) assume the structure as drawn.

Columns and labels:
Galectin-3 = Galectin-3 (Homo sapiens, UniProt P17931); assay: Fluorescence anisotropy assay, inhibition of galectin / fluorescein tagged saccharide probe interaction; assay type: binding
Method: (§1) The affinity of Example 1-28 for galectins were determined by a fluorescence anisotropy assay where the compound was used as an inhibitor of the interaction between galectin and a fluorescein tagged saccharide probe as described Sörme, P., Kahl-Knutsson, B., Huflejt, M., Nilsson, U. J., and Leffler H. (2004) Fluorescence polarization as an analytical tool to evaluate galectin-ligand interactions. Anal. Biochem. 334: 36-47, (Sörme et al., 2004) and Monovalent interactions of Galectin-1 By Salomonsson, Emma; Larumbe, Amaia; Tejler, Johan; Tullberg, Erik; Rydberg, Hanna; Sundin, Anders; Khabut, Areej; Frejd, Torbjorn; Lobsanov, Yuri D.; Rini, James M.; et al, From Biochemistry (2010), 49(44), 9518-9532, (Salomonsson et al., 2010).

Galectin-1 = Galectin-1 (Homo sapiens, UniProt P09382); assay: as above; assay type: binding
Method: as §1

Aqueous solubility = assay type: physicochemical
galectins = settings: cited from earlier work

Sequence of Galectin-3 (P17931 whole entry): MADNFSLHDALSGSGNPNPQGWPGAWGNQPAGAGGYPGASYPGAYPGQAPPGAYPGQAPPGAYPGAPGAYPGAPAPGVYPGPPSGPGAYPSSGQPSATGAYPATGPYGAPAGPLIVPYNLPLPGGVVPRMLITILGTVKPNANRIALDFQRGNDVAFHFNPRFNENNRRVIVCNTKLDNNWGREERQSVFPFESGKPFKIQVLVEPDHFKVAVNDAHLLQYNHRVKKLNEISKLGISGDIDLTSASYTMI
Sequence of Galectin-1 (P09382 whole entry): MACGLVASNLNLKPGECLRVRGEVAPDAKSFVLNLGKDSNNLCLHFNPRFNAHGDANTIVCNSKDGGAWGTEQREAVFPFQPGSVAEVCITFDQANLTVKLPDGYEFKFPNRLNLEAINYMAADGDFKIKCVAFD

SMILES | Kd (Galectin-3) | Kd (Galectin-1) | solubility (Aqueous solubility) | affinity, times lower than lactose (galectins; relative to lactose) | Kd (galectins; all galectins)
O=C[C@H](O)[C@@H](O)[C@@H](O)[C@H](O)CO [D-galactose] |  |  |  | 50-100 times | 
O=P(O)(O)OCO[C@@H]1[C@@H](n2cc(-c3cc(F)c(F)c(F)c3)nn2)[C@@H](O)[C@@H](CO)O[C@@H]1Sc1cncc(Br)c1 [Example 5, 5-Bromopyridin-3-yl 3-deoxy-3-[4-(3,4,5-trifluorophenyl)-1H-1,2,3-triazol-1-yl]-2-O-[(phosphonooxy)methyl]-1-thio-α-D-galactopyranoside] | 0.012 µM | 3.83 µM | > 10 mg/mL |  | 
OC[C@H]1O[C@H](Sc2cncc(Br)c2)[C@H](OCc2ncc[nH]2)[C@@H](n2cc(-c3cc(F)c(F)c(F)c3)nn2)[C@H]1O [Example 15, 5-Bromopyridin-3-yl 3-deoxy-3-[4-(3,4,5-trifluorophenyl)-1H-1,2,3-triazol-1-yl]-2-O-[(1H-imidazol-2-yl)methyl]-1-thio-α-D-galactopyranoside] | 0.007 µM | 9.5 µM |  |  | 
Cn1ccnc1CO[C@@H]1[C@@H](n2cc(-c3cc(F)c(F)c(F)c3)nn2)[C@@H](O)[C@@H](CO)O[C@@H]1Sc1cncc(Br)c1 [Example 16, 5-Bromopyridin-3-yl 3-deoxy-3-[4-(3,4,5-trifluorophenyl)-1H-1,2,3-triazol-1-yl]-2-O-[(1-methyl-1H-imidazol-2-yl)methyl]-1-thio-α-D-galactopyranoside] | 0.057 µM | 6.4 µM |  |  | 
OC[C@H]1O[C@H](Sc2cncc(Br)c2)[C@H](OCc2ncco2)[C@@H](n2cc(-c3cc(F)c(F)c(F)c3)nn2)[C@H]1O [Example 17, 5-Bromopyridin-3-yl 3-deoxy-3-[4-(3,4,5-trifluorophenyl)-1H-1,2,3-triazol-1-yl]-2-O-[(oxazol-2-yl)methyl]-1-thio-α-D-galactopyranoside] | 0.024 µM | 2.8 µM |  |  | 
OC[C@H]1O[C@H](Sc2cncc(Br)c2)[C@H](OCc2ccon2)[C@@H](n2cc(-c3cc(F)c(F)c(F)c3)nn2)[C@H]1O [Example 19, 5-Bromopyridin-3-yl 3-deoxy-3-[4-(3,4,5-trifluorophenyl)-1H-1,2,3-triazol-1-yl]-2-O-[(isoxazol-3-yl)methyl]-1-thio-α-D-galactopyranoside] | 0.032 µM | 2.9 µM |  |  | 
OC[C@H]1O[C@H](Sc2cncc(Br)c2)[C@H](OCc2cncs2)[C@@H](n2cc(-c3cc(F)c(F)c(F)c3)nn2)[C@H]1O [Example 22, 5-Bromopyridin-3-yl 3-deoxy-3-[4-(3,4,5-trifluorophenyl)-1H-1,2,3-triazol-1-yl]-2-O-[(thiazol-5-yl)methyl]-1-thio-α-D-galactopyranoside] | 0.021 µM | 1.9 µM |  |  | 
OC[C@H]1O[C@H](Sc2cncc(Br)c2)[C@H](OCc2nccs2)[C@@H](n2cc(-c3cc(F)c(F)c(F)c3)nn2)[C@H]1O [Example 23, 5-Bromopyridin-3-yl 3-deoxy-3-[4-(3,4,5-trifluorophenyl)-1H-1,2,3-triazol-1-yl]-2-O-[(thiazol-2-yl)methyl]-1-thio-α-D-galactopyranoside] | 0.041 µM | 2.6 µM |  |  | 
CN(C)C(=O)c1ccc(Cl)cc1S[C@H]1OC(CO)[C@H](O)C(n2cc(-c3cc(F)c(F)c(F)c3)nn2)C1OCc1cscn1 (stereo partly drawn) [Example 24, 4-Chloro-N,N-dimethyl-benzamide-2-yl 3-deoxy-3-[4-(3,4,5-trifluorophenyl)-1H-1,2,3-triazol-1-yl]-2-O-[(thiazol-4-yl)methyl]-1-thio-α-D-galactopyranoside] | 0.014 µM | 3.7 µM |  |  | 
O=C(O)CCCO[C@@H]1[C@@H](n2cc(-c3cc(F)c(F)c(F)c3)nn2)[C@@H](O)[C@@H](CO)O[C@@H]1Sc1cncc(Br)c1 [Example 26, 5-Bromopyridin-3-yl 2-O-carboxypropyl-3-deoxy-3-[4-(3,4,5-trifluorophenyl)-1H-1,2,3-triazol-1-yl]-1-thio-α-D-galactopyranoside] | 0.01 µM | 1.5 µM |  |  | 
OC[C@H]1O[C@@H](O[C@H]2[C@H](O)[C@@H](O)C(O)O[C@@H]2CO)[C@H](O)[C@@H](O)[C@H]1O (some centres unmarked) [lactose] |  |  |  |  | 500 to 1000 µM

The next lines start with results.

Kd (Galectin-3) | Kd (Galectin-1) | solubility (Aqueous solubility) | SMILES | affinity, times lower than lactose (galectins; relative to lactose) | Kd (galectins; all galectins)
0.023 µM | 3 µM | 2.9 mg/mL (≈ 4.3 mM) | CS(=O)(=O)NC(=O)COC1C(n2cc(-c3cc(F)c(Cl)c(F)c3)nn2)[C@@H](O)C(CO)O[C@@H]1Sc1ccc(Cl)c(Cl)c1 (stereo in doubt) [Example 9, 3,4-Dichlorphenyl 3-[4-(4-chloro-3,5-difluorophenyl)-1H-1,2,3-triazol-1-yl]-3-deoxy-2-O-[2-(methylsulfonamido)-2-oxoethyl]-1-thio-α-D-galactopyranoside] |  | 
0.0085 µM | 2 µM | 2 mg/mL (≈ 3.35 mM) | O=C(O)CO[C@@H]1[C@@H](n2cc(-c3cc(F)c(Cl)c(F)c3)nn2)[C@@H](O)[C@@H](CO)O[C@@H]1Sc1ccc(Cl)c(Cl)c1 [Example 7, 3,4-Dichlorphenyl 2-O-carboxymethyl-3-[4-(4-chloro-3,5-difluorophenyl)-1H-1,2,3-triazol-1-yl]-3-deoxy-1-thio-α-D-galactopyranoside] |  | 
0.007 µM | 1.8 µM | 1.8 mg/mL (≈ 3.04 mM) | O=C(O)CO[C@@H]1[C@@H](n2cc(-c3cc(F)c(F)c(F)c3)nn2)[C@@H](O)[C@@H](CO)O[C@@H]1Sc1cncc(Br)c1 [Example 8, 5-Bromopyridin-3-yl 2-O-carboxymethyl-3-deoxy-3-[4-(3,4,5-trifluorophenyl)-1H-1,2,3-triazol-1-yl]-1-thio-α-D-galactopyranoside] |  | 
0.13 µM | 14.8 µM |  | OC[C@H]1O[C@H](Sc2cncc(Br)c2)[C@H](OCc2cnco2)[C@@H](n2cc(-c3cc(F)c(F)c(F)c3)nn2)[C@H]1O [Example 18, 5-Bromopyridin-3-yl 3-deoxy-3-[4-(3,4,5-trifluorophenyl)-1H-1,2,3-triazol-1-yl]-2-O-[(oxazol-5-yl)methyl]-1-thio-α-D-galactopyranoside] |  | 
0.087 µM | 29.7 µM |  | OCC1O[C@H](Sc2ccc(Cl)c(Cl)c2)C(OCc2cocn2)C(n2cc(-c3cc(F)c(Cl)c(F)c3)nn2)[C@H]1O (stereo partly drawn) [Example 20, 3,4-Dichlorphenyl 3-[4-(4-chloro-3,5-difluorophenyl)-1H-1,2,3-triazol-1-yl]-3-deoxy-2-O-[(oxazol-4-yl)methyl]-1-thio-α-D-galactopyranoside] |  | 
0.018 µM | 8.6 µM |  | OC[C@H]1O[C@H](Sc2cncc(Br)c2)[C@H](OCc2cscn2)[C@@H](n2cc(-c3cc(F)c(F)c(F)c3)nn2)[C@H]1O [Example 21, 5-Bromopyridin-3-yl 3-deoxy-3-[4-(3,4,5-trifluorophenyl)-1H-1,2,3-triazol-1-yl]-2-O-[(thiazol-4-yl)methyl]-1-thio-α-D-galactopyranoside] |  | 
0.004 µM | 1.2 µM |  | CN(C)C(=O)c1ccc(Cl)cc1S[C@H]1OC(CO)[C@H](O)C(n2cc(-c3cc(F)c(F)c(F)c3)nn2)C1OCc1nnn[nH]1 (stereo partly drawn) [Example 25, 4-Chloro-N,N-dimethyl-benzamide-2-yl 3-deoxy-3-[4-(3,4,5-trifluorophenyl)-1H-1,2,3-triazol-1-yl]-2-O-[(1H-tetrazol-5-yl)methyl]-1-thio-α-D-galactopyranoside] |  | 
